We go through 17 compounds from US9353082B2, “Pharmaceutical compounds” (BIAL—PORTELA & CA, S.A., priority 2008, dated 2016).

Assay [1] addresses T1, FAAH (Rattus norvegicus, UniProt P97612).
T1 construct: Frozen brains (without cerebellum) from Wistar rats were used; from tissue; host or cells: Wistar rat brain (without cerebellum), washed membrane pellets
T1 sequence (P97612 1-579): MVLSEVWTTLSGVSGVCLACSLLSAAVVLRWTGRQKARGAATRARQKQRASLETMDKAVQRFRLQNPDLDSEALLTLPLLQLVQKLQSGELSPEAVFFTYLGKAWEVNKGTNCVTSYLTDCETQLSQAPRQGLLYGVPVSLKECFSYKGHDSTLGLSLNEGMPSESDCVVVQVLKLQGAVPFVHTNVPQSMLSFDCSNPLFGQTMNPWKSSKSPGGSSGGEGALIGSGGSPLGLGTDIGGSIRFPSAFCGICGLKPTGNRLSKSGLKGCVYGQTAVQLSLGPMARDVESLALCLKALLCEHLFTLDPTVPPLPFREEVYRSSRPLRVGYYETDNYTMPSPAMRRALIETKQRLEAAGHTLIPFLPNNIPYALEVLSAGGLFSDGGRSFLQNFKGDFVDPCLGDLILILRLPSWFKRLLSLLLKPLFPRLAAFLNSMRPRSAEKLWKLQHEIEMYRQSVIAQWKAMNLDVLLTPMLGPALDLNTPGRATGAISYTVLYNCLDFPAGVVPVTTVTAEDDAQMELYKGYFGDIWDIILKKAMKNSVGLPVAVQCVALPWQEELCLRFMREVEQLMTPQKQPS
Description: In vitro FAAH activity in rat brain membranes, 3H-AEA substrate, % of control. Format: biochemical, Wistar rats. To be noted: low value = strong inhibitor; for In Vitro FAAH activity, 100 nM: 100 nM test compound; for In Vitro FAAH activity, 10 uM: 10 uM test compound. The method in brief: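 Wistar rat brain membranes (5 μg protein) preincubated 15 min at 37 °C with compound at 10 μM or 0.1 μM (0.1% DMSO), then 2 μM AEA including 3H-AEA with 0.1% BSA, Tris pH 7.6, 10 min. 3H-ethanolamine counted after charcoal stop; % of no-compound control after blank subtraction.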

Assay [2] deals with T2, FAAH (Mus musculus, UniProt O08914).
T2 construct: A fragment of liver, left lung lobe and brain without cerebellum were removed; from tissue; host or cells: male NMRI mice; brain (without cerebellum) and liver homogenates
T2 sequence (O08914 1-579): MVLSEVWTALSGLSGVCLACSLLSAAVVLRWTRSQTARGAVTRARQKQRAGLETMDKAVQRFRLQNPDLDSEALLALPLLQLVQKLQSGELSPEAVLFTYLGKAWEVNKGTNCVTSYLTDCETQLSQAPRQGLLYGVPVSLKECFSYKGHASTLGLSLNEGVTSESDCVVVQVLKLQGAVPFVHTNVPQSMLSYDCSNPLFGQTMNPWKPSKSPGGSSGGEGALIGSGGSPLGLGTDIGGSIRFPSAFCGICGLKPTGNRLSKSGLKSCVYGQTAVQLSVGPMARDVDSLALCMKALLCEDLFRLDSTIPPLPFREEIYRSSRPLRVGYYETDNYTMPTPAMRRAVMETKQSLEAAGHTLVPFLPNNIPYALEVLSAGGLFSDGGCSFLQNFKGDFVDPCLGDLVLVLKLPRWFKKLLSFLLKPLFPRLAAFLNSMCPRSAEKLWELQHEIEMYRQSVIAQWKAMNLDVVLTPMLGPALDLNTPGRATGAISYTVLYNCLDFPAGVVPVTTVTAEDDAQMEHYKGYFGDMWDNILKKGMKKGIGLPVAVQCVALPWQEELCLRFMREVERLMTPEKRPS
Briefly: In vivo FAAH inhibition after oral dosing, remaining activity in brain homogenate (BRh, central nervous tissue). Also on record: species or system NMRI mice. To be noted: brain homogenate, 3 mg/kg, 8 h. Summed up: (§1)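 Male NMRI mice, fasted overnight, got 30 or 3 mg/kg compound orally (0.5% CMC suspension or water) and were compared with vehicle controls. Brain (no cerebellum) and liver homogenates were incubated with 2 μM AEA plus 5 nM 3H-AEA at 37 °C, 10 min for brain and 7 min for liver. Remaining FAAH activity is % of vehicle after blank subtraction.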

Assay [3] has as its target T2, FAAH. Description: In vivo FAAH inhibition after oral dosing, remaining activity in liver homogenate (LVh, peripheral tissue). Also on record: species or system NMRI mice. The conditions noted are these: liver homogenate, 3 mg/kg, 8 h. The method in brief: as §1

SMILES strings stand for the structures.

Turning to `CC1(C)COCN1C(=O)n1cnc(-c2cccnc2)c1.Cl.Cl` [Compound 226, (4,4-dimethyloxazolidin-3-yl)(4-(pyridin-3-yl)-1H-imidazol-1-yl)methanone dihydrochloride], in assay [1], the “In Vitro FAAH activity, 100 nM” value is on record as 76.6 % of control. Also, the “In Vivo BRh 3 mg/kg 8 h, remaining FAAH activity” value in assay [2] was 8.4 % of control. For the same compound, the “In Vivo LVh 3 mg/kg 8 h, remaining FAAH activity” value in assay [3] was 5.1 % of control.

Regarding `COc1cc(-c2cn(C(=O)N3COCC3(C)C)cn2)ccc1O` [Compound 228, (4,4-dimethyloxazolidin-3-yl)(4-(4-hydroxy-3-methoxyphenyl)-1H-imidazol-1-yl)methanone], the “In Vitro FAAH activity, 100 nM” value in assay [1] is on record as 78.1 % of control. In addition, the “In Vivo BRh 3 mg/kg 8 h, remaining FAAH activity” value in assay [2] was 56.4 % of control. Also, the “In Vivo LVh 3 mg/kg 8 h, remaining FAAH activity” value in assay [3] was 31.9 % of control.

For the compound `CC1(C)COCN1C(=O)n1cnc(-c2cccc(-c3ccccc3)c2)c1` [Compound 231, (4-(biphenyl-3-yl)-1H-imidazol-1-yl)(4,4-dimethyloxazolidin-3-yl)methanone], the “In Vitro FAAH activity, 100 nM” value in assay [1] is reported as 54.2 % of control. Further, the “In Vivo BRh 3 mg/kg 8 h, remaining FAAH activity” value in assay [2] is recorded as 3.9 % of control. In addition, the “In Vivo LVh 3 mg/kg 8 h, remaining FAAH activity” value in assay [3] is reported as 3.6 % of control.

As to `CC1(C)COCN1C(=O)n1cnc(-c2cccc(-c3cccc(C(N)=O)c3)c2)c1` [Compound 232, 3′-(1-(4,4-dimethyloxazolidine-3-carbonyl)-1H-imidazol-4-yl)biphenyl-3-carboxamide], in assay [1], the “In Vitro FAAH activity, 100 nM” value is reported as 84.7 % of control and the “In Vitro FAAH activity, 10 uM” value is listed as 0 % of control. For the same compound, the “In Vivo BRh 3 mg/kg 8 h, remaining FAAH activity” value in assay [2] is 82.8 % of control. Besides, the “In Vivo LVh 3 mg/kg 8 h, remaining FAAH activity” value in assay [3] is 6.5 % of control.

Consider `CCC1(C)OCCN1C(=O)n1cnc(-c2ccc(Cl)cc2)c1` (stereo not drawn) [Compound 233, (4-(4-chlorophenyl)-1H-imidazol-1-yl)(2-ethyl-2-methyloxazolidin-3-yl)methanone], for which, in assay [1], the “In Vitro FAAH activity, 100 nM” value is listed as 74.1 % of control. The “In Vivo BRh 3 mg/kg 8 h, remaining FAAH activity” value in assay [2] is given as 33.5 % of control. Besides, the “In Vivo LVh 3 mg/kg 8 h, remaining FAAH activity” value in assay [3] is 21.1 % of control.

Regarding `CC1OCC(C)(C)N1C(=O)n1cnc(-c2ccc(Cl)cc2)c1` (stereo not drawn) [Compound 235, (4-(4-chlorophenyl)-1H-imidazol-1-yl)(2,4,4-trimethyloxazolidin-3-yl)methanone], the “In Vitro FAAH activity, 100 nM” value in assay [1] is recorded as 76.2 % of control. In addition, the “In Vivo BRh 3 mg/kg 8 h, remaining FAAH activity” value in assay [2] was 108.5 % of control. The “In Vivo LVh 3 mg/kg 8 h, remaining FAAH activity” value in assay [3] is reported as 80.1 % of control.

For the compound `COc1cccc(-c2cccc(-c3cn(C(=O)N4COCC4(C)C)cn3)c2)c1` [Compound 236, (4,4-dimethyloxazolidin-3-yl)(4-(3′-methoxybiphenyl-3-yl)-1H-imidazol-1-yl)methanone], in assay [1], the “In Vitro FAAH activity, 100 nM” value is on record as 75.4 % of control. In addition, the “In Vivo BRh 3 mg/kg 8 h, remaining FAAH activity” value in assay [2] is on record as 67.7 % of control. The “In Vivo LVh 3 mg/kg 8 h, remaining FAAH activity” value in assay [3] is 37.7 % of control.

Consider `CN(C(=O)n1cnc(-c2cccc(-c3cccc(C(N)=O)c3)c2)c1)C1CCCCC1` [Compound 238, 4-(3′-carbamoylbiphenyl-3-yl)-N-cyclohexyl-N-methyl-1H-imidazole-1-carboxamide], for which the “In Vitro FAAH activity, 100 nM” value in assay [1] is given as 1.2 % of control. Moreover, the “In Vivo BRh 3 mg/kg 8 h, remaining FAAH activity” value in assay [2] was 67.9 % of control. Moreover, the “In Vivo LVh 3 mg/kg 8 h, remaining FAAH activity” value in assay [3] was 2.8 % of control.

On to `CN(C(=O)n1cnc(-c2cccc(-c3ccccc3)c2)c1)C1CCCCC1` [Compound 239, 4-(biphenyl-3-yl)-N-cyclohexyl-N-methyl-1H-imidazole-1-carboxamide], for which the “In Vitro FAAH activity, 100 nM” value in assay [1] is reported as 4 % of control. Moreover, in assay [2], the “In Vivo BRh 3 mg/kg 8 h, remaining FAAH activity” value was 16.4 % of control. Besides, the “In Vivo LVh 3 mg/kg 8 h, remaining FAAH activity” value in assay [3] was 4.6 % of control.

In the case of `COc1cccc(-c2cccc(-c3cn(C(=O)N(C)C4CCCCC4)cn3)c2)c1` [Compound 240, N-cyclohexyl-4-(3′-methoxybiphenyl-3-yl)-N-methyl-1H-imidazole-1-carboxamide], the “In Vitro FAAH activity, 100 nM” value in assay [1] is recorded as 22.4 % of control. Moreover, the “In Vivo BRh 3 mg/kg 8 h, remaining FAAH activity” value in assay [2] is recorded as 99 % of control. In assay [3], the “In Vivo LVh 3 mg/kg 8 h, remaining FAAH activity” value is listed as 39.5 % of control.

In the case of `CN(C(=O)n1cnc(-c2cccc(-c3ccc(C(N)=O)cc3)c2)c1)C1CCCCC1` [Compound 245, 4-(4′-carbamoylbiphenyl-3-yl)-N-cyclohexyl-N-methyl-1H-imidazole-1-carboxamide], the “In Vitro FAAH activity, 100 nM” value in assay [1] was 0.4 % of control. For the same compound, in assay [2], the “In Vivo BRh 3 mg/kg 8 h, remaining FAAH activity” value is recorded as 90.6 % of control. For the same compound, the “In Vivo LVh 3 mg/kg 8 h, remaining FAAH activity” value in assay [3] was 15.8 % of control.

In the case of `CN(C(=O)n1cnc(-c2cccc(-c3cccc(O)c3)c2)c1)C1CCCCC1` [Compound 247, N-cyclohexyl-4-(3′-hydroxybiphenyl-3-yl)-N-methyl-1H-imidazole-1-carboxamide], in assay [1], the “In Vitro FAAH activity, 100 nM” value is 0.5 % of control. In addition, in assay [2], the “In Vivo BRh 3 mg/kg 8 h, remaining FAAH activity” value was 131.7 % of control. In addition, in assay [3], the “In Vivo LVh 3 mg/kg 8 h, remaining FAAH activity” value is reported as 85.5 % of control.

As for `CN(C(=O)n1cnc(-c2cccc(-c3cccc(OC(F)(F)F)c3)c2)c1)C1CCCCC1` [Compound 248, N-cyclohexyl-N-methyl-4-(3′-(trifluoromethoxy)biphenyl-3-yl)-1H-imidazole-1-carboxamide], the “In Vitro FAAH activity, 100 nM” value in assay [1] was 68.9 % of control. In assay [2], the “In Vivo BRh 3 mg/kg 8 h, remaining FAAH activity” value is 104.2 % of control. In assay [3], the “In Vivo LVh 3 mg/kg 8 h, remaining FAAH activity” value was 57 % of control.

With `CC(C)N(Cc1ccccc1)C(=O)n1cnc(-c2ccccc2)c1` [Compound 250, N-benzyl-N-isopropyl-4-phenyl-1H-imidazole-1-carboxamide], the “In Vitro FAAH activity, 100 nM” value in assay [1] was 90.5 % of control. Also, the “In Vivo BRh 3 mg/kg 8 h, remaining FAAH activity” value in assay [2] is 102.1 % of control. Moreover, in assay [3], the “In Vivo LVh 3 mg/kg 8 h, remaining FAAH activity” value is on record as 52.6 % of control.

In the case of `Cc1c(-c2ccccc2)ncn1C(=O)N(C)C1CCCCC1` [Compound 254, N-cyclohexyl-N,5-dimethyl-4-phenyl-1H-imidazole-1-carboxamide], in assay [1], the “In Vitro FAAH activity, 100 nM” value is given as 81 % of control and the “In Vitro FAAH activity, 10 uM” value is on record as 109 % of control. The “In Vivo BRh 3 mg/kg 8 h, remaining FAAH activity” value in assay [2] is recorded as 98.3 % of control. Further, the “In Vivo LVh 3 mg/kg 8 h, remaining FAAH activity” value in assay [3] is 89.9 % of control.

On to `CN(C(=O)n1cnc(-c2cccc(-c3cccc(Cl)c3)c2)c1)C1CCCCC1` [Compound 257, 4-(3′-chlorobiphenyl-3-yl)-N-cyclohexyl-N-methyl-1H-imidazole-1-carboxamide], for which, in assay [1], the “In Vitro FAAH activity, 100 nM” value is 65.6 % of control. For the same compound, in assay [2], the “In Vivo BRh 3 mg/kg 8 h, remaining FAAH activity” value was 60.1 % of control. Besides, in assay [3], the “In Vivo LVh 3 mg/kg 8 h, remaining FAAH activity” value is 12.2 % of control.

Turning to `CC1(C)COCN1C(=O)n1cnc(-c2ccc(O)cc2)c1` [Compound 260, (4,4-dimethyloxazolidin-3-yl)(4-(4-hydroxyphenyl)-1H-imidazol-1-yl)methanone], in assay [1], the “In Vitro FAAH activity, 100 nM” value is reported as 95.3 % of control and the “In Vitro FAAH activity, 10 uM” value is reported as 37.3 % of control. For the same compound, in assay [2], the “In Vivo BRh 3 mg/kg 8 h, remaining FAAH activity” value was 8.1 % of control. The “In Vivo LVh 3 mg/kg 8 h, remaining FAAH activity” value in assay [3] is 7.8 % of control.
